Earlier results as cited in patent US20120115828A1 (APEX LABORATORIES PRIVATE LIMITED, priority 2009, published 2012).

Solubility in alcohol (alcohol) | Solubility in chloroform | Solubility in water | Solubility in ethanol (95%) (ethanol (95%)) | Solubility in ether (ether) | Solubility in methanol (methanol) | Compound
slightly soluble | slightly soluble | insoluble |  |  |  | CC(=O)OCC(=O)[C@@]1(O)CC[C@H]2[C@@H]3CCC4=CC(=O)CC[C@]4(C)[C@H]3[C@@H](O)C[C@@]21C [Hydrocortisone Acetate]
 | slightly soluble | very slightly soluble | slightly soluble | very slightly soluble | freely soluble | Clc1ccc(COC(Cn2ccnc2)c2ccc(Cl)cc2Cl)c(Cl)c1 (centres unmarked) [Miconazole Nitrate, 1-[2-(2,4-Dichlorophenyl)-2-[(2,4-dichlorophenyl)methoxy]ethyl]-1H-imidazole]
